The text below walks through data of patent US20060148858A1, “1, 2-Azole derivatives with hypoglycemic and hypolipidemic activity” (priority 2002, published 2006).

SMILES strings stand for the structures. Read-outs that look alike come from different tables or passages of the source.

Series [1] relates to KKAY mice. Description: Hypoglycemic and hypolipidemic actions in mice (Test Example 1). Format: in vivo. The settings on record: Mus musculus, po, 96 h, 0.005% in powdery diet, four days, non-treated group taken as 100%. As for the experimental part:
Test compounds were mixed in a powdery diet (CE-2, Japan Clea) at the concentration of 0.005%, and freely given to KKAY mice (9 to 12 weeks old, 5 mice in a group), a model of obese and non-insulin dependent diabetes (type 2 diabetes), for four days. During this period, water was given freely. Blood was sampled from orbital venous plexus, and glucose and triglyceride levels in plasma separated from blood were determined enzymatically using L type Wako Glu2 (Wako Pure Chemical Industries, Ltd.) or L type Wako TG·H (Wako Pure Chemical Industries, Ltd.), respectively.
In the table, “hypoglycemic action (%)” means the rate of decrease (%) in the blood glucose level of the treated group when the blood glucose level of the non-treated group is taken as 100%. In addition, the “hypolipidemic action (%)” means the rate of decrease (%) in the blood triglyceride level of the treated group when the blood triglyceride level of the non-treated group is taken as 100%.

In series [2] the test system is KKAY mice. Description: Plasma anti-arteriosclerosis index-enhancing action in mice (Test Example 2). To be noted: Mus musculus, po, 96 h, 0.005% in powdery diet, four days, percent increase of (HDL cholesterol/total cholesterol)x100, non-treatment group taken as 100%. Format: in vivo. How it is done: Test compounds were mixed in a powdery diet (CE-2, Japan Clea) at the concentration of 0.005%, and freely given to KKAY mice (9 to 12 weeks old, 5 mice per group), a model of obese and non-insulin dependent diabetes (type 2 diabetes), for four days. During this period, water was given freely. Blood was sampled from orbital venous plexus and components in plasma separated from blood were determined. Total cholesterol levels were determined by using L type Wako Cholesterol (Wako Pure Chemical Industries, Ltd.). Precipitation reagent for HDL cholesterol (Wako Pure Chemical Industries, Ltd.) was added to a part of the plasma to precipitate non-HDL lipoprotein, and cholesterol (HDL cholesterol) in the resulting supernatant was determined. The plasma anti-arteriosclerosis index [(HDL cholesterol/total cholesterol)×100] was calculated by using these cholesterol levels.
In the Table, “Plasma anti-arteriosclerosis index-enhancing action (%)” represents the percent increase (%) of plasma anti-arteriosclerosis index in the treatment group, when the plasma anti-arteriosclerosis index in the non-treatment group is taken as 100%.

The next series has as its target T1, PPARδ-RXRα heterodimer (Homo sapiens, UniProt Q03181).
T1 construct: expressed in transfected cells; host or cells: COS-1
T1 sequence (Q03181 1-441): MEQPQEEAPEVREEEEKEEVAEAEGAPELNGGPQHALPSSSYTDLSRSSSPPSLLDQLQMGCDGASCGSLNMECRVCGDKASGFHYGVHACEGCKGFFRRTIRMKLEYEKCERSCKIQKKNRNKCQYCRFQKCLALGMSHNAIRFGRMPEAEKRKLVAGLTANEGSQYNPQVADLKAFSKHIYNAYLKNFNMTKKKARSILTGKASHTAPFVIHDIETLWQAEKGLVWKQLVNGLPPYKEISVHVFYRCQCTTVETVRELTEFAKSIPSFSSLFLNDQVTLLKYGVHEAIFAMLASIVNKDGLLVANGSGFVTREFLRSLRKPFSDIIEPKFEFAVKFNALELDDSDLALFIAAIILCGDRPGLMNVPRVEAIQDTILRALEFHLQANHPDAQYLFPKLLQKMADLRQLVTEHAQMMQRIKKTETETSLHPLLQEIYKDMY
T1 sequence (P19793 1-462 partner): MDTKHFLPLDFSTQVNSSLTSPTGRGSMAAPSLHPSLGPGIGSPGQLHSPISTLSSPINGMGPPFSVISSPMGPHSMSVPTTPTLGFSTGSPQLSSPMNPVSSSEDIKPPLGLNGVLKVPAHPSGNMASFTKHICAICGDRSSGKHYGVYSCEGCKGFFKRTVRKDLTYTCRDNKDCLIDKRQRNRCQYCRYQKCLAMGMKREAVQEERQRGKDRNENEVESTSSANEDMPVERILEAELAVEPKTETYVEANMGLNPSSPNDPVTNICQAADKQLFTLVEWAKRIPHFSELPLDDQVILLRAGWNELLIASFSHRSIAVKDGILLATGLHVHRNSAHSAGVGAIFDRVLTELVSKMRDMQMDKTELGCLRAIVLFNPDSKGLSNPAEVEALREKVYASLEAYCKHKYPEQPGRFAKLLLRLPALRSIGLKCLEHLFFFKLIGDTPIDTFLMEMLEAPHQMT
Description: PPARδ-RXRα heterodimer ligand activity, luciferase reporter in COS-1 transformant (Test Example 4). The series is classed as cell-based. The settings on record: COS-1 transformant (hPPARδ, hRXRα, reporter), 36-48 hours, concentration for 50% of the maximum fold induction. An outline of the steps: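 COS-1 cells transiently co-transfected with human PPARδ, human RXRα, PPRE-luciferase reporter and pRL-tk, then exposed to compound 36-48 h at 37 °C in DMEM with 0.1% fatty acid-free BSA. Luciferase read as fold induction over untreated; EC50 at 50% of maximal fold induction.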

Setting [3] is: rate of decrease in blood glucose level, read-out: Hypoglycemic action (%).
Where [4] appears, read: rate of decrease in blood triglyceride level, read-out: Hypolipidemic action (%).

`CCn1cc(CC(=O)O)c(OCCCc2cn(-c3ccc(C(F)(F)F)cn3)nc2C(C)C)n1` [Example 313, [1-ethyl-3-(3-{3-isopropyl-1-[5-(trifluoromethyl)-2-pyridinyl]-1H-pyrazol-4-yl}propoxy)-1H-pyrazol-4-yl]acetic acid]: the melting point lay in the range of 99 to 100 °C. Also, the inhibition in vivo at 0.005 % in diet in the series on KKAY mice [1] (setting [3]) was 51%. For the same compound, the inhibition in vivo at 0.005 % in diet with KKAY mice [1] (setting [4]) was found to be 48%. Also, the change in vivo at 0.005 % in diet in the series with KKAY mice [2] was 15%.
The corresponding values for `CCOc1cccc(CC(=O)O)c1OCCCc1cn(-c2ccc(Cl)cn2)nc1C(CC)CC` [Example 225, (2-{3-[1-(5-chloro-2-pyridyl)-3-(1-ethylpropyl)-1H-pyrazol-4-yl]propoxy}-3-ethoxyphenyl)acetic acid] are 92 to 93 °C, 31%, 35% and 12%.
On to `CC(C)c1nn(-c2ccc(C(F)(F)F)cn2)cc1CCCOc1nn(C)cc1CC(=O)O` [Example 299, [3-(3-{3-isopropyl-1-[5-(trifluoromethyl)-2-pyridinyl]-1H-pyrazol-4-yl}propoxy)-1-methyl-1H-pyrazol-4-yl]acetic acid], for which the melting point was in the range of 122 to 123 °C. Further, in the series with KKAY mice [2], the change in vivo at 0.005 % in diet was 11%.
Take `CCc1cccc(CC(=O)O)c1OCCCc1cn(-c2ccc(Cl)cn2)nc1C(CC)CC` [Example 253, (2-{3-[1-(5-chloro-2-pyridinyl)-3-(1-ethylpropyl)-1H-pyrazol-4-yl]propoxy}-3-ethylphenyl)acetic acid]: the melting point lay within 114 to 115 °C. For the same compound, the inhibition in vivo at 0.005 % in diet in the series with KKAY mice [1] (setting [3]) came to 49%. For the same compound, the inhibition in vivo at 0.005 % in diet in the series on KKAY mice [1] (setting [4]) worked out at 35%. Besides, in the series on KKAY mice [2], the change in vivo at 0.005 % in diet was 16%.
The corresponding values for `COc1cccc(CC(=O)O)c1OCCCc1cn(-c2ccc(C(F)(F)F)cc2)nc1C(C)C` [Example 185, [2-(3-{3-isopropyl-1-[4-(trifluoromethyl)phenyl]-1H-pyrazol-4-yl}propoxy)-3-methoxyphenyl]acetic acid] are 114 to 115 °C, 47%, 43% and 15%.
`CC(C)c1nn(-c2ccc(C(F)(F)F)cn2)cc1CCCOc1c(CC(=O)O)cnn1C` [Example 318, [5-(3-{3-isopropyl-1-[5-(trifluoromethyl)-2-pyridinyl]-1H-pyrazol-4-yl}propoxy)-1-methyl-1H-pyrazol-4-yl]acetic acid]: the melting point fell in the range of 146 to 148 °C. The change in vivo at 0.005 % in diet in the series with KKAY mice [2] is 22%.
In turn, `CCC(CC)c1nn(-c2ccc(C(F)(F)F)nn2)cc1CCCOc1c(CC(=O)O)cccc1OC` [Example 339, [2-(3-{3-(1-ethylpropyl)-1-[6-(trifluoromethyl)pyridazin-3-yl]-1H-pyrazol-4-yl}propoxy)-3-methoxyphenyl]acetic acid] had a melting point of 81 to 82 °C. Moreover, in the series with KKAY mice [1] (setting [3]), the inhibition in vivo at 0.005 % in diet was determined as 50%. Also, in the series with KKAY mice [1] (setting [4]), the inhibition in vivo at 0.005 % in diet is 54%. Besides, in the series on KKAY mice [2], the change in vivo at 0.005 % in diet turned out to be 22%.
The corresponding values for `CCCc1nn(-c2ccc(C(F)(F)F)cn2)cc1CCCOc1nn(CC)cc1CC(=O)O` [Example 305, [1-ethyl-3-(3-{3-propyl-1-[5-(trifluoromethyl)-2-pyridinyl]-1H-pyrazol-4-yl}propoxy)-1H-pyrazol-4-yl]acetic acid] are 105 to 106 °C, 50%, 55% and 22%.
With `CCOc1nn(-c2ccc(C(F)(F)F)cn2)cc1CCCOc1nn(CC)cc1CC(=O)O` [Example 335, [3-(3-{3-ethoxy-1-[5-(trifluoromethyl)-2-pyridinyl]-1H-pyrazol-4-yl}propoxy)-1-ethyl-1H-pyrazol-4-yl]acetic acid], the melting point lay in the range of 108 to 109 °C. The change in vivo at 0.005 % in diet with KKAY mice [2] stood at 12%.
Consider `COc1cccc(CC(=O)O)c1OCCCc1cn(-c2ccc(C#N)nn2)nc1C(C)C` [Example 337, (2-{3-[1-(6-cyanopyridazin-3-yl)-3-isopropyl-1H-pyrazol-4-yl]propoxy}-3-methoxyphenyl)acetic acid], for which the values for the inhibition in vivo at 0.005 % in diet in the series on KKAY mice [1] (setting [3]) and in the series on KKAY mice [1] (setting [4]) were 44% and 48%, respectively. For the same compound, the change in vivo at 0.005 % in diet in the series with KKAY mice [2] turned out to be 24%.
`CCOc1cccc(CC(=O)O)c1OCCCc1cn(-c2ccc(C(F)(F)F)cn2)nc1C(C)C` [Example 300, [3-ethoxy-2-(3-{3-isopropyl-1-[5-(trifluoromethyl)-2-pyridinyl]-1H-pyrazol-4-yl}propoxy)phenyl]acetic acid]: the melting point lay in the range of 141 to 142 °C. Besides, the inhibition in vivo at 0.005 % in diet in the series with KKAY mice [1] (setting [3]) was 36%. For the same compound, the inhibition in vivo at 0.005 % in diet with KKAY mice [1] (setting [4]) worked out at 39%. Moreover, the change in vivo at 0.005 % in diet with KKAY mice [2] was 12%.
Consider `CCn1ncc(CC(=O)O)c1OCCCc1cn(-c2ccc(C(F)(F)F)cn2)nc1C(C)C` [Example 322, [1-ethyl-5-(3-{3-isopropyl-1-[5-(trifluoromethyl)-2-pyridinyl]-1H-pyrazol-4-yl}propoxy)-1H-pyrazol-4-yl]acetic acid], for which the melting point was in the range of 120 to 121 °C. Besides, in the series with KKAY mice [2], the change in vivo at 0.005 % in diet came to 14%.
In turn, `CCC(CC)c1nn(-c2ccc(Cl)cn2)cc1CCCOc1c(C)cccc1CC(=O)O` [Example 224, (2-{3-[1-(5-chloro-2-pyridyl)-3-(1-ethylpropyl)-1H-pyrazol-4-yl]propoxy}-3-methylphenyl)acetic acid] returned a melting point of 106 to 107 °C. For the same compound, the inhibition in vivo at 0.005 % in diet with KKAY mice [1] (setting [3]) amounted to 48%. Further, the inhibition in vivo at 0.005 % in diet with KKAY mice [1] (setting [4]) is 60%. For the same compound, in the series on KKAY mice [2], the change in vivo at 0.005 % in diet was determined as 14%.
The corresponding values for `CCCc1nn(-c2ccc(C(F)(F)F)cn2)cc1CCCOc1c(CC(=O)O)cccc1OCC` [Example 260, [3-ethoxy-2-(3-{3-propyl-1-[5-(trifluoromethyl)-2-pyridyl]-1H-pyrazol-4-yl}propoxy)phenyl]acetic acid] are 133 to 134 °C, 42%, 44% and 22%.
Regarding `CC(C)c1nn(-c2ccc(C(F)(F)F)cn2)cc1CCCOc1cccc(CC(=O)O)c1` [Example 22, [3-(3-{3-isopropyl-1-[5-(trifluoromethyl)-2-pyridyl]-1H-pyrazol-4-yl}propoxy)phenyl]acetic acid], the melting point was 82 to 83 °C. Also, in the series with KKAY mice [2], the change in vivo at 0.005 % in diet stood at 12%. This compound also registered an EC50 at PPARδ-RXRα heterodimer of 8.6 nM.

In general, melting point refers to the temperature, or range, at which the solid turns liquid. By EC50 is commonly meant the concentration at which the effect is half-maximal.
